Reference: US20240293587A1, “CXCR4-TARGETED DIAGNOSTIC AND THERAPEUTIC AGENTS WITH REDUCED SPECIES SELECTIVITY” (TECHNISCHE UNIVERSITÄT MÜNCHEN, priority 2018, published 2024)
Starred links: 1 amine or outer side, 2 acyl side, 3 side chain; linkers in the order of their positions; H or OH if unused. Non-standard residues stand in square brackets, D forms with d. Residues, ends and D or L forms follow the SMILES beside them. Groups on a side chain read outwards from the residue. *: point of attachment. dAla(N-(6-guanidinohexyl)) = C[C@@H](NCCCCCCNC(=N)N)C(=O)O; DOTA = O=C(O)CN1CCN(CC(=O)O)CCN(CC(=O)*)CCN(CC(=O)O)CC1; X2 = CC(=O)NCCCCNC(=N)NCCCCCCN([C@H](C)C(=O)[*:2])[*:1]; 2Nal = N[C@@H](Cc1ccc2ccccc2c1)C(=O)O; dNMeOrn = CN[C@H](CCCN)C(=O)O; 4Amb = NCc1ccc(C(=O)O)cc1

Key:
[1] = molecular target: T1, human CXCR4 (hCXCR4) (Homo sapiens (Human), UniProt P61073); test: Competition binding on Jurkat cells with [125I]FC-131 as radioligand; settings: [125I]FC-131 radioligand, mean ± SD
Method: (§1) For the determination of hCXCR4-affinity, competition binding experiments were performed using Jurkat cells and [^125I]FC131 or [^125I]R1 as radioligand. Affinity to mCXCR4 and rCXCR4 was determined using Eμ-Myc1080 mouse B-cell lyphoma cells ^57 or C6 rat glioma cells, respectively, and [^125I]R1 as the radioligand.
(§2) For IC50 determination using Jurkat or Eμ-Myc1080 cells, samples containing 2×10^5 cells (or 4×10^5 cells; exact cell number used in the respective evaluations is given in the results section) in Hank's balanced salt solution (HBSS)/1% Bovine Serum Albumin (BSA) were incubated with 100.000 cpm of the respective radioligand (approx. 0.1 nM) in the presence of increasing concentrations (10^−11 to 10^−5 M) of the respective peptide of interest (n=3 per concentration). The total sample volume was 250 μL. After incubation at room temperature (RT) for 120 min with gentle agitation (200 mot/min), the tubes were centrifuged (5 min, 450g, Megafuge 1.0, Heraeus Thermo Scientific) and the supernatant was carefully removed. After washing twice with 400 μL of cold HBSS, the amount of cell-bound radioligand was quantified using a […]-counter.
(§3) IC50 values were calculated using PRISM 6 software (Graph Pad Software, San Diego, CA) using a three-parameter sigmoidal dose response curve fit.

[2] = molecular target: mouse CXCR4 (mCXCR4) (Mus musculus (Mouse), UniProt P70658); test: Competition binding on Eμ-Myc1080 mouse B-cell lymphoma cells with [125I]R1 as radioligand; settings: 200.000 cells/sample, [125I]R1 radioligand, mean ± SD
Method: as §1, §2, §3

[3] = molecular target: murine receptor (mCXCR4) (Mus musculus (Mouse), UniProt P70658); settings: background statement; cited from earlier work
[4] = molecular target: T1, human CXCR4 (hCXCR4); test: Competition binding on Jurkat cells with [125I]R1 as radioligand; settings: 200.000 cells/sample, [125I]R1 radioligand, mean ± SD
Method: as §1, §2, §3

mouse CXCR4 (mCXCR4), sequence (P70658 whole entry): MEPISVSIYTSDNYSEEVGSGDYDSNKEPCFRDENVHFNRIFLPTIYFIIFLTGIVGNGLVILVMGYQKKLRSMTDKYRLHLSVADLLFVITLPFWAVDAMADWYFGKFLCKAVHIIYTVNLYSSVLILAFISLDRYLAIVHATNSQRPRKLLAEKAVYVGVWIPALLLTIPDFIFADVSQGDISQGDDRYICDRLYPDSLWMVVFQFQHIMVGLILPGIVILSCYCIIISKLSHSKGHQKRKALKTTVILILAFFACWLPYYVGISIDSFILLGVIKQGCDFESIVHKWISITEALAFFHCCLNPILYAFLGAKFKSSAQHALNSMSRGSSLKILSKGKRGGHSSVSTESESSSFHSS
T1 sequence (P61073 whole entry): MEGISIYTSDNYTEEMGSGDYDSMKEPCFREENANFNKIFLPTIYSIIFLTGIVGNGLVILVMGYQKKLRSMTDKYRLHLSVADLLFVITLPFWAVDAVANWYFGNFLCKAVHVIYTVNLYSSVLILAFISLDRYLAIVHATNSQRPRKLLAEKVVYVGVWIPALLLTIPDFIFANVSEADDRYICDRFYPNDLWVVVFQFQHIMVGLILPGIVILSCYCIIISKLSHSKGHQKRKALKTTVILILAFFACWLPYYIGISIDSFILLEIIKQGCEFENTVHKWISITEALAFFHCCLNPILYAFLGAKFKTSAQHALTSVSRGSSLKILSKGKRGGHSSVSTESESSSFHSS
murine receptor (mCXCR4), sequence (P70658 whole entry): as the sequence (P70658 whole entry) above

Molecule | IC50 ([1]; 400.000 cells/sample) [nM] | IC50 [2] [nM] | IC50 [4] [nM] | further results
cyclo[ya′(hexylguanidino)RNalc(-CH2—CO—NH—CH2-(m-aryl)-CH2—NH-^natLu-DOTA)] [Pc5c] | 51 ± 4 | – | – | –
C[C@@H]1C(=O)N[C@@H](CCCNC(=N)N)C(=O)N[C@@H](Cc2ccc3ccccc3c2)C(=O)NCC(=O)N[C@H](Cc2ccc(O)cc2)C(=O)N1CCCCCCNC(=N)NCCCCCCNC(=O)CN1CCN(CC(=O)O)CCN(CC(=O)O)CCN(CC(=O)O)CC1 (natLu complex, metal not drawn) [P5d] | – | 17 ± 3.3 | – | –
CN1C(=O)[C@@H](Cc2ccc(O)cc2)NC(=O)CNC(=O)[C@H](Cc2ccc3ccccc3c2)NC(=O)[C@H](CCCN=C(N)N)NC(=O)[C@H]1CCCNC(=O)c1ccc(CNC(=O)CN2CCN(CC(=O)[O-])CCN(CC(=O)[O-])CCN(CC(=O)[O-])CC2)cc1.[68Ga+3] [[^68Ga]pentixafor, cyclo(D-Tyr^1-D-[NMe]Orn^2(AMBS-DOTA)-Arg^3-Nal^4-Gly^5)] (cyclo([2Nal]G[dY][dNMeOrn]([4Amb-DOTA])R)) | – | – | – | affinity to mCXCR4 (in words) [3]: virtually no affinity
C[C@@H]1C(=O)N[C@@H](CCCNC(=N)N)C(=O)N[C@@H](Cc2ccc3ccccc3c2)C(=O)NCC(=O)N[C@H](Cc2ccc(O)cc2)C(=O)N1CCCCCCNC(=N)NCCCCCCNC(=O)CCCCC[N+]1=C(/C=C/C=C/C=C2/N(C)c3ccc(S(=O)(=O)O)cc3C2(C)C)C(C)(C)c2cc(S(=O)(=O)[O-])ccc21 [P5e, Sulfo2-Cy5-Hex-CPCR4.3] | – | 156 ± 7 | 156 ± 11 | –
C[C@@H]1C(=O)N[C@@H](CCCNC(=N)N)C(=O)N[C@@H](Cc2ccc3ccccc3c2)C(=O)N[C@H](CS)C(=O)N[C@H](Cc2ccc(O)cc2)C(=O)N1CCCCCCNC(=N)N [Pc0, Cyclo(ya′(hexylguanidino)Rnalc)] (cyclo([2Nal][dC][dY][dAla(N-(6-guanidinohexyl))]R)) | 35 ± 2 | – | – | –
C[C@@H]1C(=O)N[C@@H](CCCNC(=N)N)C(=O)N[C@@H](Cc2ccc3ccccc3c2)C(=O)NCC(=O)N[C@H](Cc2ccc(O)cc2)C(=O)N1CCCCCCNC(=N)NCCCCCCNC(=O)CN1CCN(CC(=O)O)CCN(CC(=O)O)CCN(CC(=O)O)CC1 (natGa complex, metal not drawn) [P5c] | – | 12.7 ± 4.6 | 13 ± 2 | –
cyclo[ya′(hexylguanidino)RNalc(-CH2—CO—NH—CH2-(m-aryl)-CH2—NH-^natCu-DOTA)] [Pc5d] | 78 ± 5 | – | – | –
C[C@@H]1C(=O)N[C@@H](CCCNC(=N)N)C(=O)N[C@@H](Cc2ccc3ccccc3c2)C(=O)NCC(=O)N[C@H](Cc2ccc(O)cc2)C(=O)N1CCCCCCNC(=N)NCCCCCCNC(=O)CCCCCN1/C(=C/C=C/C=C/C2=[N+](CCCCCC(=O)NCCCCCCNC(=N)NCCCCCCN3C(=O)[C@@H](Cc4ccc(O)cc4)NC(=O)CNC(=O)[C@H](Cc4ccc5ccccc5c4)NC(=O)[C@H](CCCNC(=N)N)NC(=O)[C@H]3C)c3ccc(S(=O)(=O)[O-])cc3C2(C)C)C(C)(C)c2cc(S(=O)(=O)O)ccc21 [P5f, Sulfo2-Cy5(Hex-CPCR4.3)2] | – | 136 ± 26 | 115 ± 39 | –
cyclo(D-3-iodo-Tyr^1-D-[NMe]Orn^2(AMBS-DOTA)-Arg^3-Nal^4-Gly^5) [[^177Lu/^90Y]pentixather] | – | – | – | affinity to mCXCR4 (in words) [3]: virtually no affinity
cyclo[ya′(hexyluanidino)RNalc(-CH2—CO—NH—CH2-(m-aryl)-CH2—NH-^natGa-DOTA)] [Pc5b] | 31 ± 3 | 63 ± 19 | 64 ± 29 | –
C[C@@H]1C(=O)N[C@@H](CCCNC(=N)N)C(=O)N[C@@H](Cc2ccc3ccccc3c2)C(=O)NCC(=O)N[C@H](Cc2ccc(O)cc2)C(=O)N1CCCCCCNC(=N)NCCCCCCNC(=O)CCOCCOCCOCCOCCNC(=O)CCCCC[N+]1=C(/C=C/C=C/C=C2/N(C)c3ccc(S(=O)(=O)O)cc3C2(C)C)C(C)(C)c2cc(S(=O)(=O)[O-])ccc21 [P5g, Sulfo2-Cy5-PEG4-Hex-CPCR4.3] | – | 63 ± 23 | 91 ± 49 | IC50 ([1]; 200.000 cells/sample): 40 ± 5 nM
CC(=O)NCCCCNC(=N)NCCCCCCN1C(=O)[C@@H](Cc2ccc(O)cc2)NC(=O)CNC(=O)[C@H](Cc2ccc3ccccc3c2)NC(=O)[C@H](CCCNC(=N)N)NC(=O)[C@H]1C [P3, c(y-(NHex-Gua-But-Ac)a-R-Nal-G)] (cyclo([dY][X2]R[2Nal]G)) | – | – | – | IC50 ([1]; 200.000 cells/sample): 2.1 ± 0.5 nM
